Reference: ChEMBL document CHEMBL4414576, “Recent advancements in mechanistic studies and structure activity relationship of FoF1 ATP synthase inhibitor as antimicrobial agent” (Eur J Med Chem, 2019)
Converted amounts (≈) assume the structure as drawn.

Columns and labels:
[1] = test system: Escherichia coli; test: Inhibition of F1F0-ATP synthase in Escherichia coli after 60 mins relative to control; design: concentration or dose not given beside the values
[2] = Inhibition of F1F0-ATP synthase in Escherichia coli after 60 mins
[3] = Inhibition of F1F0-ATP synthase in Escherichia coli
[4] = test system: Escherichia coli; test: Inhibition of F1F0-ATP synthase in Escherichia coli relative to control; design: concentration or dose not given beside the values; details: concentration not given here
[5] = test system: Escherichia coli; test: Antimicrobial activity against Escherichia coli after 1 to 5 days by two-fold dilution; format: functional, organism-based
[6] = test system: Pseudomonas aeruginosa; test: Antimicrobial activity against Pseudomonas aeruginosa after 1 to 5 days by two-fold dilution; format: functional, organism-based
[7] = test system: Staphylococcus aureus; test: Antimicrobial activity against Staphylococcus aureus after 1 to 5 days by two-fold dilution; format: functional, organism-based
[8] = test system: Bacillus subtilis; test: Antimicrobial activity against Bacillus subtilis after 1 to 5 days by two-fold dilution; format: functional, organism-based
[9] = test system: Mycolicibacterium smegmatis; test: Antimicrobial activity against Mycobacterium smegmatis after 1 to 5 days by two-fold dilution; format: functional, organism-based
[10] = Inhibition of ATP synthase isolates from rat brain cells using succinate as substrate preincubated for 5 mins followed by substrate addition
[11] = test system: Saccharomyces cerevisiae; test: Inhibition of F1F0-ATP synthase in yeast relative to control; details: concentration not given here
[12] = test system: Mycobacterium tuberculosis; test: Antimicrobial activity against Mycobacterium tuberculosis H37Rv; format: functional, organism-based
[13] = Selectivity index, ratio of CC50 for African green monkey Vero cells to IC50 of Mycobacterium tuberculosis H37Rv; format: toxicity; details: read-out: Ratio IC50
[14] = Inhibition of ATP synthase in Escherichia coli
[15] = test system: Escherichia coli; test: Inhibition of ATP synthase in Escherichia coli relative to control; details: concentration not given here
[16] = organism: Mus musculus; test: Inhibition of mitochondrial ATP synthase isolated from Swiss albino mouse liver at 100 uM using succinate as substrate after 1 hr relative to control
[17] = Selectivity index, ratio of CC50 for human HepG2 cells to MIC of Mycobacterium tuberculosis H37Rv; format: toxicity
[18] = Inhibition of ATP synthase in Mycobacterium smegmatis; design: species or system Mycolicibacterium smegmatis
[19] = target: ATP synthase (Mycobacterium tuberculosis) (UniProt P9WPU9+P9WPU5+P9WPU7+P9WPV5+P9WPS1+P9WPV1+P9WPV7+P9WPV3); test: Inhibition of ATP synthase in Mycobacterium tuberculosis H37Rv whole cell lysate after 18 hrs at 5X of MIC relative to control; format: subcellular
[20] = Selectivity index, ratio of IC50 for ATP synthase in Mycobacterium tuberculosis H37Rv to IC50 for mitochondrial ATP synthase isolated from swiss albino mouse liver
[21] = test system: Staphylococcus aureus; test: Antimicrobial activity against Staphylococcus aureus ATCC 29213; format: functional
[22] = test system: Streptococcus pneumoniae; test: Antimicrobial activity against Streptococcus pneumoniae ATCC 49619; format: functional
[23] = test system: Mycobacterium tuberculosis H37Rv; test: Inhibition of F0F1-ATP synthase in Mycobacterium tuberculosis H37Rv at […] using succinate as substrate preincubated for 10 mins followed by substrate addition by luciferase reporter gene assay relative to control
[24] = test system: Mycobacterium tuberculosis; test: Antimicrobial activity against Mycobacterium tuberculosis H37Rv after 5 days; format: functional
[25] = target: ATP synthase; test: Inhibition of ATP synthase in Mycobacterium tuberculosis H37Rv; format: protein-complex assay

**Q.** With `O=c1cc(-c2ccc(O)c(O)c2)oc2cc(O)cc(O)c12` as the molecule, how does the inhibition [1] read?
**A.** Its inhibition is 0 to 20%.

**Q.** With `O=c1cc(-c2ccccc2)oc2cc(O)c(O)c(O)c12` [BAICALEIN] as the molecule, how does the IC50 [2] read?
**A.** The IC50 was 290 µM.

**Q.** What about the inhibition [1] of the same molecule?
**A.** The inhibition was 100%.

**Q.** Which inhibition [1] does the source give for `O=c1c(-c2ccc(O)cc2)coc2cc(O)ccc12` here?
**A.** Its inhibition is 0 to 20%.

**Q.** For `O=c1cc(-c2ccc(O)cc2)oc2cc(O)cc(O)c12`, which inhibition [1] is on record?
**A.** The inhibition was 40 to 60%.

**Q.** Which IC50 [3] does the source give for `Oc1cccc(/C=N/c2cccc(O)c2)c1` here?
**A.** The IC50 was 2.25 µM.

**Q.** What about the inhibition [4] of the same molecule?
**A.** The inhibition was 100%.

**Q.** Which IC50 [3] does the source give for `O=[N+]([O-])c1cc(O)ccc1/N=C/c1ccccc1O` here?
**A.** The IC50 was 6 µM.

**Q.** What about the inhibition [4] of the same molecule?
**A.** The inhibition was 100%.

**Q.** For `O=c1c(O)c(-c2ccc(O)cc2)oc2cc(O)cc(O)c12`, which inhibition [1] is on record?
**A.** Its inhibition is 40 to 60%.

**Q.** Which inhibition [1] does the source give for `COc1ccc(-c2cc(=O)c3c(O)cc(O[C@@H]4O[C@H](CO[C@@H]5O[C@@H](C)[C@H](O)[C@@H](O)[C@H]5O)[C@@H](O)[C@H](O)[C@H]4O)cc3o2)cc1O` here?
**A.** Its inhibition is 40 to 60%.

**Q.** Which MIC [5] does the source give for `FC(F)(F)Oc1cccc(CNCCNC2C3CC4CC(C3)C2C4)c1` (stereo not given) here?
**A.** Its MIC is 6.25 µg/mL (≈ 17.6 µM).

**Q.** And the MIC [6]?
**A.** The MIC was 12.5 µg/mL (≈ 35.3 µM).

**Q.** What about the MIC [7] of the same molecule?
**A.** Its MIC is 6.25 µg/mL (≈ 17.6 µM).

**Q.** What about the MIC [8] of the same molecule?
**A.** The MIC was 6.25 µg/mL (≈ 17.6 µM).

**Q.** What about the IC50 [9] of the same molecule?
**A.** Its IC50 is 20 µM.

**Q.** With `O=c1c(O)c(-c2ccc(O)cc2O)oc2cc(O)cc(O)c12` [MORIN] as the molecule, how does the IC50 [2] read?
**A.** The IC50 was 70 µM.

**Q.** What about the inhibition [1] of the same molecule?
**A.** The inhibition was 100%.

**Q.** For `COc1cc(/C=C/C(=O)CC(=O)/C=C/c2ccc(O)c(OC)c2)ccc1O` [CURCUMIN], which IC50 [10] is on record?
**A.** The IC50 was 45 µM.

**Q.** For `COc1cc(=O)oc(/C=C/C=C/C=C/C(C)=C/[C@]2(C)O[C@H](C)[C@](C)(O)[C@H]2O)c1C`, which inhibition [11] is on record?
**A.** The inhibition was 85%.

**Q.** Which results are given for `O=C(CNC1CCCCC1)N(c1ccccc1)c1ccccc1`?
**A.** IC50 [12]: 14 µM; selectivity ratio [13]: 21.1

**Q.** Which inhibition [1] does the source give for `O=c1cc(-c2ccccc2)oc2cc(O)cc(O)c12` here?
**A.** Its inhibition is 40 to 60%.

**Q.** For `Oc1ccc(/C=C/c2cc(O)cc(O)c2)cc1` [RESVERATROL], which IC50 [10] is on record?
**A.** The IC50 was 19 µM.

**Q.** And the IC50 [14]?
**A.** The IC50 was 94 µM.

**Q.** And the inhibition [15]?
**A.** The inhibition was 40%.

**Q.** For `CC1(C)CC(=O)C(=CNc2ccccc2O)C(=O)C1`, which inhibition [16] is on record?
**A.** Its inhibition is 25%.

**Q.** What about the selectivity ratio [17] of the same molecule?
**A.** Its selectivity ratio is 20.

**Q.** What about the IC50 [18] of the same molecule?
**A.** Its IC50 is 4 µM.

**Q.** What about the inhibition [19] of the same molecule?
**A.** Its inhibition is 15 to 30%.

**Q.** What about the MIC [12] of the same molecule?
**A.** The MIC was 2 µg/mL (≈ 7.71 µM).

**Q.** And the Ratio IC50 [20]?
**A.** The Ratio IC50 was 11.6.

**Q.** For `COc1nc2ccc(Br)cc2cc1[C@H](c1ccccc1)[C@](O)(CCCCN(C)C)CCc1ccccc1`, which MIC [21] is on record?
**A.** Its MIC is 2 µg/mL (≈ 3.56 µM).

**Q.** What about the MIC [22] of the same molecule?
**A.** The MIC was 0.25 µg/mL (≈ 0.445 µM).

**Q.** With `Oc1cc(O)cc(/C=C/c2ccc(O)c(O)c2)c1` [PICEATANNOL] as the molecule, how does the IC50 [10] read?
**A.** The IC50 was 8 µM.

**Q.** And the IC50 [14]?
**A.** Its IC50 is 14 µM.

**Q.** And the inhibition [15]?
**A.** Its inhibition is 100%.

**Q.** For `NNC(=O)c1ccncc1`, which inhibition [23] is on record?
**A.** The inhibition was 99%.

**Q.** For `O=C(CNC1CCCC1)N(c1ccccc1)c1ccccc1`, which IC50 [12] is on record?
**A.** The IC50 was 10.4 µM.

**Q.** What about the selectivity ratio [13] of the same molecule?
**A.** The selectivity ratio was 24.

**Q.** Which inhibition [23] does the source give for `OC(COC(c1ccccc1)c1cccc2ccccc12)CN1CCN(c2ccccc2)CC1` (stereo not given) here?
**A.** The inhibition was 91%.

**Q.** Which inhibition [23] does the source give for `COc1cccc(N2CCN(CC(O)COC(c3ccccc3)c3cccc4ccccc34)CC2)c1` (stereo not given) here?
**A.** Its inhibition is 99%.

**Q.** Which results are given for `CCN(CC)Cc1cc(N(c2cc(C)nc3cc(Cl)ccc23)S(=O)(=O)c2cc(C)cc(C)c2)ccc1O`?
**A.** MIC [24]: 6.25 µg/mL (≈ 11.6 µM); IC50 [25]: 360 to 1830 nM

**Q.** Which results are given for `CCN(CC)Cc1cc(N(c2cc(C)nc3cc(Cl)ccc23)S(=O)(=O)c2cccc(Cl)c2Cl)ccc1O`?
**A.** MIC [24]: 3.12 µg/mL (≈ 5.39 µM); IC50 [25]: 360 to 1830 nM

**Q.** With `O=c1c(O)c(-c2ccc(O)c(O)c2)oc2cc(O)cc(O)c12` [QUERCETIN] as the molecule, how does the IC50 [14] read?
**A.** Its IC50 is 33 µM.

**Q.** What about the inhibition [15] of the same molecule?
**A.** The inhibition was 80%.

**Q.** With `COc1ccccc1N1CCN(CC(O)COC(c2ccccc2)c2cccc3ccccc23)CC1` (stereo not given) as the molecule, how does the inhibition [23] read?
**A.** The inhibition was 90%.

**Q.** Which MIC [24] does the source give for `CCN(CC)Cc1cc(N(c2cc(C)nc3cc(Cl)ccc23)S(=O)(=O)c2ccc([N+](=O)[O-])cc2)ccc1O` here?
**A.** The MIC was 6.25 µg/mL (≈ 11.3 µM).

**Q.** What about the IC50 [25] of the same molecule?
**A.** The IC50 was 360 to 1830 nM.

**Q.** With `Oc1ccc(O)cc1` as the molecule, how does the inhibition [4] read?
**A.** Its inhibition is 80%.

**Q.** With `COc1ccc([C@@H]2CC(=O)c3c(O)cc(O[C@@H]4O[C@H](CO[C@@H]5O[C@@H](C)[C@H](O)[C@@H](O)[C@H]5O)[C@@H](O)[C@H](O)[C@H]4O)cc3O2)cc1O` as the molecule, how does the inhibition [1] read?
**A.** Its inhibition is 40 to 60%.

**Q.** With `COc1nc2ccc(Br)cc2cc1[C@H](c1cc(F)ccc1F)[C@](O)(CCCCN(C)C)c1ccccc1` as the molecule, how does the MIC [21] read?
**A.** The MIC was 1 µg/mL (≈ 1.76 µM).

**Q.** And the MIC [22]?
**A.** Its MIC is 0.25 µg/mL (≈ 0.439 µM).
